Oc1ccc(/C=C/c2cc(O)cc(O)c2)cc1
solubility (mole fraction)
Details	273.2 K	283.2 K	293.2 K	303.2 K	313.2 K	323.2 K
in acetone	0.0846	0.0858	0.0871	0.0877	0.0886	–
in ethanol	0.0101	0.0127	0.0156	0.0182	0.0208	0.0236
in water	–	–	2.9e-06	4.57e-06	6.46e-06	9.3e-06

Reference: BigSolDB 2.1
